Reference: PMC4449006, “Targeting KRAS Oncogene in Colon Cancer Cells with 7-Carboxylate Indolo[3,2-b]quinoline Tri-Alkylamine Derivatives” (PLoS ONE, 2015)

Experiments:
KRAS21 G-quadruplex DNA = assay: FRET melting assay, KRAS G-quadruplex DNA; format: binding; conditions: standard deviation < 0.2°C
Procedure: (§1) The capacity of compounds 1a-d, 2a-d and the standard G4 ligand TMPyP4 (Fig 1) to bind and stabilize KRAS [26] and HSP90A [27] G4 DNA structures as well as duplex DNA (T-loop) was evaluated by a Fluorescence Resonance Energy Transfer (FRET) melting assay. […] It was observed that the basicity of side chains correlates positively with thermal G4 stabilization of all DNA sequences up to an optimal pKa ~ 8.0–9.0 (Fig 2). Heterocyclic amines at the end of alkyl side chain (1b and 2b) appear to improve binding to G4s and complex stabilization compared to the di-ethylamine group (1a and 2a), which cannot be explained by differences in basicity between terminal groups. […] However, this was not observed for the isomeric pair 1a / 2a.
(§2) All oligonucleotides were purchased from Eurofins MWG Synthesis GmbH, Germany. The labeled oligonucleotides used in the FRET assays had attached the donor fluorophore FAM (6-carboxyfluorescein) and the acceptor fluorophore TAMRA (6-carboxytetramethylrhodamine): KRAS21R (5’-FAM-[…]-TAMRA-3’); HSP90A (5’- [FAM]-[…]-[TAMRA]-3’); T-Loop (5’-FAM-[…]-TAMRA-3’). Each oligonucleotide was initially diluted to a storage solution at 100 μM in nuclease free water (not DEPC-treated), purchased from Ambion Applied Biosystems UK.
(§3) The ability of IQ3A and TMPyP4 to stabilize G-quadruplex and duplex DNA sequences was investigated using a Fluorescence Resonance Energy Transfer (FRET) assay. Stock solution of the oligonucleotides sequences at 20 μM and subsequent dilutions were obtained from storage solutions diluting with K-cacodylate buffer pH = 7.4, containing 60 mM K^+ (10 mM potassium cacodylate, 50 mM KCl). The FRET probe sequences were diluted from stock to the correct concentration (0.4 μM) and then annealed by heating to 95°C for 10 min, followed by cooling to RT. Test compounds were prepared as 1 mM in 10% DMSO and 10% 1mM HCl in HPLC-grade water. The rest of the dilutions were performed using FRET buffer. Annealed DNA (50 μL) and compound solution (50 μL) were distributed across 96-well RT-PCR plates (BioRad; MJ Research, Waltham, MA, USA). Relevant controls were also performed to check for interference with the assay. Fluorescence readings were made on a DNA Engine Opticon (MJ Research) with excitation at 450–495 nm and detection at 515–545 nm, taken at intervals of 0.5°C in the range 30–100°C, with a constant temperature being maintained for 30 s prior to each reading to ensure a stable value. Experiments were performed in triplicate. Final analysis of the data was carried out with GraphPad Prism 5.0 software (GraphPad Software, Inc). The advanced curve-fitting function in GraphPad Prism was used for calculation of ΔT m values and associated standard deviations.

HSP90A G-quadruplex DNA = assay: FRET melting assay, HSP90A G-quadruplex DNA; format: binding; conditions: standard deviation < 0.2°C
Procedure: as §1, §2, §3

T-Loop duplex DNA = assay: FRET melting assay, duplex DNA; format: binding; conditions: standard deviation < 0.2°C
Procedure: as §1, §2, §3

HCT116 cells = assay: MTS short-term cytotoxicity assay (72 h), HCT116; format: cell-based, human
Procedure: (§4) The short-term effect of compounds at 72 h on cell growth was studied using colorectal carcinoma cell lines with different KRAS and TP53 genotypes: human colorectal carcinoma HCT116 (mut Kras, wild-type (wt) p53), and human metastatic colorectal adenocarcinoma SW620 (mut Kras, mut p53). In parallel, we also used the immortalized human embryonic kidney cell line HEK293T (wt Kras, wt p53) and normal human colon fibroblast cells CCD18co (wt Kras, wt p53).
(§5) SW620 human colorectal adenocarcinoma cells (European Collection of Cell Cultures, ECACC, Porton Down, Wiltshire, UK), HEK293T human embryonic kidney cells (ATCC, LGC Standards, UK) HCT116 human colon carcinoma cells (ECACC), HCT116 p53(+/+) and p53(−/−) isogenic human colon cancer cells (GRCF Cell Center and Biorepository, the Johns Hopkins University, School of Medicine, Baltimore, MD, USA), were grown in Dulbecco’s modified Eagle’s medium (DMEM) supplemented with 10% fetal bovine serum, and 1% antibiotic/antimycotic (Invitrogen, Grand Island, NY, USA), CCD18co human colon fibroblasts (ATCC, CRL-1459) were grown in Minimum Essential Medium (MEM) supplemented with 10% fetal bovine serum, 1% antibiotic/antimycotic, 2 mM GlutaMAX, 0,1 mM Non-essential amino acids (NEAA) (Invitrogen) and […] Recombinant Human TNF-α (Peprotech, USA) and maintained at 37°C in a humidified atmosphere of 5% CO2.
(§6) Cell viability was evaluated by the tetrazolium dye (MTS) Short-Term Cytotoxicity Assay. […] Following 72 h of compound exposure, cell viability was evaluated using the CellTiter 96 AQueous Non-Radioactive Cell Proliferation Assay (Promega, Madison, WI, USA), using 3-(4,5-dimethylthiazol-2-yl)-5-(3-carboxymethoxyphenyl)-2-(4-sulfophenyl)-2H-tetrazolium, inner salt (MTS) as previously described [35]. Cell viability data were expressed as mean ±SD from at least three independent experiments. IC50 and IC65 values were determined using GaphPad Prism v.5.00 (GraphPad Software). In selected experiments, cell viability was also assessed by trypan blue exclusion assay, and general cell death by LDH activity from cell culture supernatants.

HEK293T cells = assay: MTS short-term cytotoxicity assay (72 h), HEK293T; format: cell-based, human; conditions: MTS
Procedure: as §4, §5, §6

KRAS mRNA = KRAS mRNA steady-state levels by Taqman Real-time RT-PCR; conditions: IC50 concentrations

**Q.** What does the source list for CCN(CC)CCOC(=O)c1ccc2c(c1)c1nc3ccccc3c(OCCN(CC)CC)c1n2CCN(CC)CC [1a]?
**A.** ΔTm (°C) KRAS21 1 μM (KRAS21 G-quadruplex DNA; 1 μM compound): 8 °C; ΔTm (°C) KRAS21 2 μM (KRAS21 G-quadruplex DNA; 2 μM compound): 12 °C; ΔTm (°C) HSP90A 1 μM (HSP90A G-quadruplex DNA; 1 μM compound): 14 °C; ΔTm (°C) HSP90A 2 μM (HSP90A G-quadruplex DNA; 2 μM compound): 20 °C; ΔTm (°C) T-Loop 1 μM (T-Loop duplex DNA; 1 μM compound): <2 °C; ΔTm (°C) T-Loop 2 μM (T-Loop duplex DNA; 2 μM compound): 3 °C; HCT116 IC65 (HCT116 cells; 72 h, MTS, standard errors ≤ 0.1): 3.42 µM; Selective index (SI) = IC50 CCD-18co / IC50 HCT116 (HCT116 cells; CCD18co vs HCT116): 2.46; IC50 (HCT116 cells; Homo sapiens, HCT-116, 72 h, MTS, standard errors ≤ 0.1, read-out: HCT116 IC50): 1.88 µM; IC50 (HEK293T cells; Homo sapiens, HEK-293T, standard errors ≤ 0.1, read-out: HEK293T IC50): 3.23 µM; HEK293T IC65 (HEK293T cells; standard errors ≤ 0.1): 6.06 µM; down-regulation of KRAS transcription (mRNA) (KRAS mRNA; HCT116, 72 h): ~40%; down-regulation of KRAS transcription (mRNA) (KRAS mRNA; SW620, 72 h): not significantly so
